# Source: ChEMBL document CHEMBL1142477, “Synergistic interaction between p-glycoprotein modulators and epirubicine on resistant cancer cells” (Bioorg Med Chem, 2008)
# Tests used:
# [1] = molecular target: T1, ATP-dependent translocase ABCB1 (Homo sapiens, UniProt P08183); assay: Reversal of P-glycoprotein-mediated multidrug resistance in human MDR1 gene transfected mouse L5178 cells assessed as fluorescence activity ratio at 4 ug/ml by rhodamine-123 exclusion test; format: cell-based
# [2] = molecular target: T1, ATP-dependent translocase ABCB1; assay: Reversal of P-glycoprotein-mediated multidrug resistance in human MDR1 gene transfected mouse L5178 cells assessed as mean fluorescence intensity at 4 ug/ml by rhodamine-123 exclusion test; format: cell-based
# [3] = molecular target: T1, ATP-dependent translocase ABCB1; assay: Reversal of P-glycoprotein-mediated multidrug resistance in human MDR1 gene transfected mouse L5178 cells assessed as fluorescence activity ratio at 40 ug/ml by flow cytometry; format: cell-based
# [4] = molecular target: T1, ATP-dependent translocase ABCB1; assay: Reversal of P-glycoprotein-mediated multidrug resistance in human MDR1 gene transfected mouse L5178 cells assessed as mean fluorescence intensity at 40 ug/ml by rhodamine-123 exclusion test; format: cell-based
# [5] = Antiproliferative activity against parental mouse L5178 cells after 72 hrs MTT assay; format: functional; details: L5178, 72 h, read-out: ID50 (the source's name)
# [6] = Antiproliferative activity against multidrug-resistant mouse L5178 cells after 72 hrs MTT assay; format: functional; details: L5178, 72 h, read-out: ID50 (the source's name)
# [7] = Lipophilicity, log P of the compound; format: physicochemical; details: octanol/water
# [8] = Potentiation of epirubicin-induced cytotoxicity against mouse L5178 cells assessed as fractional inhibitory index by checkerboard microplate method; format: functional
# T1 sequence (P08183 whole entry): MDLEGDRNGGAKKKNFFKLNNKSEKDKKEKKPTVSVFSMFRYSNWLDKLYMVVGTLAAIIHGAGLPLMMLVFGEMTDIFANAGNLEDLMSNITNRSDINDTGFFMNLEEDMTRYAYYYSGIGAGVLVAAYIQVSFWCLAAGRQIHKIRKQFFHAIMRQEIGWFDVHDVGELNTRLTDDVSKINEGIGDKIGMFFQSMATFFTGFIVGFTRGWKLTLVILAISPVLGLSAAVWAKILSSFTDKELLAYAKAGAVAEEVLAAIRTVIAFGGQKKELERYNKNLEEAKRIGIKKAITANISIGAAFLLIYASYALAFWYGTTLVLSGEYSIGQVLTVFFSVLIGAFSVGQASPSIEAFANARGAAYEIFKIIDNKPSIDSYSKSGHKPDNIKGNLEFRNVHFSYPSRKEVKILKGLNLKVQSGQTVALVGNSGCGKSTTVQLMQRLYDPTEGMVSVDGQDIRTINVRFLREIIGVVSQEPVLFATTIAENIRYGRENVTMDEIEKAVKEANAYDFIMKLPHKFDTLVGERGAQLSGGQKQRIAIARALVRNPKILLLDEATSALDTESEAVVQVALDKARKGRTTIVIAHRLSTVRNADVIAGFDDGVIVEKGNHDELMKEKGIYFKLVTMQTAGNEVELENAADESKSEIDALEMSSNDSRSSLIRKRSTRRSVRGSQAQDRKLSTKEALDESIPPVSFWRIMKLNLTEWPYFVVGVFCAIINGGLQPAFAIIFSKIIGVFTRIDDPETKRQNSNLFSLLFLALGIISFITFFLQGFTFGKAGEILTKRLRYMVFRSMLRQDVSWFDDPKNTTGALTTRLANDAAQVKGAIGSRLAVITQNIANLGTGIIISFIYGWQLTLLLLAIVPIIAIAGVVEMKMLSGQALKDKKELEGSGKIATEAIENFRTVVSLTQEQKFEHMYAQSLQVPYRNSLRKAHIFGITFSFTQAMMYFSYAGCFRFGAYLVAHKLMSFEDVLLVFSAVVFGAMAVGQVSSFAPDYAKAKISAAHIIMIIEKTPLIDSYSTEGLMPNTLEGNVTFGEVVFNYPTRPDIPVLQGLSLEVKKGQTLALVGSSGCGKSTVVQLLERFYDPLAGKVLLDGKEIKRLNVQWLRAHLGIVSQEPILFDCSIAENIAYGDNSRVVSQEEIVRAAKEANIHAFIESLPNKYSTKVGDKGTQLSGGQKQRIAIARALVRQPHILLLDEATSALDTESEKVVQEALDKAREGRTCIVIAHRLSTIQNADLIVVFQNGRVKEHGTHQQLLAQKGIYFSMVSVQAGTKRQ
compound,measurement,setting,value
CCC(=O)OC[C@H]1C[C@]2(OC(=O)/C=C/c3ccccc3)C(=O)/C(C)=C/[C@@H]3[C@H](CC[C@@]4(C)O[C@@H]4[C@H]2[C@H]1OC(=O)CC)C3(C)C [LATILAGASCENE H],Ratio,[1],61.6
same,Flu intensity,[2],427.4
same,Ratio,[3],78
same,Flu intensity,[4],541.3
same,IC50,[5],25.3 µg/mL
same,IC50,[6],17.5 µg/mL
same,logP,[7],6.9
same,fractional inhibitory concentration index (FICI),[8],0.07
C=C1[C@@H](OC(=O)C(C)CC)[C@@H](OC(C)=O)C(=O)C(C)(C)/C=C/[C@H](C)[C@H](OC(=O)c2ccccc2)[C@@]2(O)C[C@H](C)[C@H](OC(C)=O)[C@@H]2[C@H]1OC(C)=O (stereo not given in full) [TUCKEYANOL A],Ratio,[1],39.8
same,Flu intensity,[2],554
same,Ratio,[3],98.9
same,Flu intensity,[4],1375.6
same,IC50,[5],25.8 µg/mL
same,IC50,[6],17.6 µg/mL
same,logP,[7],4.5
same,fractional inhibitory concentration index (FICI),[8],0.18
CC1(C)[C@@H]2/C=C(\CO)C(=O)[C@@]3(OC(=O)/C=C/c4ccccc4)C[C@H](COC(=O)c4ccccc4)[C@H](O)[C@@H]3[C@H]3O[C@]3(C)CC[C@@H]21 [LATILAGASCENE E],logP,[7],5.9
C/C1=C\[C@@H]2[C@H](CC[C@@]3(C)O[C@@H]3[C@H]3[C@@H](O)[C@@H](C)C[C@]3(OC(=O)c3ccccc3)C1=O)C2(C)C [LATILAGASCENE F],logP,[7],5.3
CC(=O)OC[C@H]1C[C@]2(OC(=O)/C=C/c3ccccc3)C(=O)/C(C)=C/[C@@H]3[C@H](CC[C@@]4(C)O[C@@H]4[C@H]2[C@H]1O)C3(C)C [LATILAGASCENE A],logP,[7],5.5
CC(=O)O[C@H]1[C@@H](COC(=O)c2ccccc2)C[C@]2(OC(=O)/C=C/c3ccccc3)C(=O)/C(C)=C/[C@@H]3[C@H](CC[C@@]4(C)O[C@@H]4[C@@H]12)C3(C)C [LATILAGASCENE G],Ratio,[1],68.9
same,Flu intensity,[2],478.3
same,Ratio,[3],71.6
same,Flu intensity,[4],496.6
same,IC50,[5],32.2 µg/mL
same,IC50,[6],28 µg/mL
same,logP,[7],7.9
same,fractional inhibitory concentration index (FICI),[8],0.14
C=C1[C@@H](OC(=O)C(C)C)[C@@H](OC(C)=O)C(=O)C(C)(C)/C=C/[C@H](C)[C@H](OC(=O)c2ccccc2)[C@@]2(O)C[C@H](C)[C@H](OC(C)=O)[C@@H]2[C@H]1OC(C)=O [TUCKEYANOL B],Ratio,[1],25
same,Flu intensity,[2],347.6
same,Ratio,[3],97.3
same,Flu intensity,[4],1353.2
same,IC50,[5],19.4 µg/mL
same,IC50,[6],12 µg/mL
same,logP,[7],4
same,fractional inhibitory concentration index (FICI),[8],0.25
C/C1=C\[C@@H]2[C@H](CC[C@@]3(C)O[C@@H]3[C@H]3[C@@H](O)[C@@H](C)C[C@]3(OC(=O)/C=C/c3ccccc3)C1=O)C2(C)C [JOLKINOL B],logP,[7],5.8
C/C1=C\[C@@H]2[C@H](CC[C@@]3(C)O[C@@H]3[C@H]3[C@@H](O)[C@@H](COC(=O)c4ccccc4)C[C@]3(OC(=O)/C=C/c3ccccc3)C1=O)C2(C)C [LATILAGASCENE D],logP,[7],7.2
C/C1=C\[C@@H]2[C@H](CC[C@@]3(C)O[C@@H]3[C@H]3[C@@H](O)[C@@H](CO)C[C@]3(OC(=O)/C=C/c3ccccc3)C1=O)C2(C)C [LATILAGASCENE B],logP,[7],4.8
CCCC(=O)OC[C@H]1C[C@]2(OC(=O)/C=C/c3ccccc3)C(=O)/C(C)=C/[C@@H]3[C@H](CC[C@@]4(C)O[C@@H]4[C@H]2[C@H]1OC(=O)CCC)C3(C)C [LATILAGASCENE I],Ratio,[1],62.4
same,Flu intensity,[2],433.4
same,Ratio,[3],54.2
same,Flu intensity,[4],376.5
same,IC50,[5],23.9 µg/mL
same,IC50,[6],17.3 µg/mL
same,logP,[7],8
same,fractional inhibitory concentration index (FICI),[8],0.14
C=C1[C@@H](OC(=O)c2ccccc2)[C@@H](OC(C)=O)[C@@H](OC(C)=O)C(C)(C)/C=C/[C@H](C)C(=O)[C@@]2(OC(C)=O)C[C@@](C)(OC(=O)c3ccccc3)[C@H](OC(C)=O)[C@@H]2[C@H]1OC(C)=O [EUPHOTUCKEYANOL],Ratio,[1],81
same,Flu intensity,[2],1127.4
same,Ratio,[3],106.2
same,Flu intensity,[4],1476.7
same,IC50,[5],45 µg/mL
same,IC50,[6],22.8 µg/mL
same,logP,[7],6.7
same,fractional inhibitory concentration index (FICI),[8],0.08
CC(=O)OC[C@H]1C[C@]2(OC(=O)/C=C/c3ccccc3)C(=O)/C(C)=C/[C@@H]3[C@H](CC[C@@]4(C)O[C@@H]4[C@H]2[C@H]1OC(C)=O)C3(C)C [LATILAGASCENE C],logP,[7],6.2
